What follows are compounds tested against unphosphorylated-BTK kinase domain (UP-BTK), GST-tagged human BTK (389-659aa) (Homo sapiens (Human), UniProt Q06187) (assay: BTK Kinase Lanthascreen Binding Assay). Conditions: Lanthascreen binding, 60 minutes incubation; pIC50 = negative log of the IC50 in molar.
Description: BTK Kinase Lanthascreen Binding Assay:
A BTK kinase lanthascreen binding assay monitors compound binding to unphosphorylated-BTK kinase domain (UP-BTK), by competing with a fluorescent labeled tracer. […] Data were analyzed using Xlfit™ version 5.3 from ID Business Solutions (Guildford), Microsoft Excel add-in. pIC50 refers to the negative log of the IC50 in molar.

Chain of unphosphorylated-BTK kinase domain (UP-BTK), GST-tagged human BTK (389-659aa) (Q06187 389-659): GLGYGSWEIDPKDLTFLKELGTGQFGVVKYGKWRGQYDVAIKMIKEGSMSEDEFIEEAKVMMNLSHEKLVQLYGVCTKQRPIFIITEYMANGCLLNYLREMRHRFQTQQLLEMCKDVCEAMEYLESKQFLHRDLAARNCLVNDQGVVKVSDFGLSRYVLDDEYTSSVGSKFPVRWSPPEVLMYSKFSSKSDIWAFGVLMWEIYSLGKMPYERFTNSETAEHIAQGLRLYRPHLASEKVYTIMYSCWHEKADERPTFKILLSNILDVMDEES

`C=CC(=O)N[C@H]1CCC[C@H]1NC(=O)c1sc2nccc3c2c1NC(=O)N3c1cnc(Oc2cncnc2)cc1C` [Example 486, N-((1R,2S)-2-Acrylamidocyclopentyl)-5-(4-methyl-6-(pyrimidin-5-yloxy)pyridin-3-yl)-4-oxo-4,5-dihydro-3H-1-thia-3,5,8-triazaacenaphthylene-2-carboxamide] and `C=CC(=O)N[C@H]1CCC[C@H]1NC(=O)c1sc2nccc3c2c1NC(=O)N3c1cnc(Oc2cccnc2)cc1C` [Example 490, N-((1R,2S)-2-Acrylamidocyclopentyl)-5-(4-methyl-6-(pyridin-3-yloxy)pyridin-3-yl)-4-oxo-4,5-dihydro-3H-1-thia-3,5,8-triazaacenaphthylene-2-carboxamide] are within 0.2 log units of each other in “BTK_I_binding pIC50” value: 7.39 for the first, 7.40 for the second.

`C=CC(=O)N[C@H]1CCC[C@H]1NC(=O)c1sc2nccc3c2c1NC(=O)N3c1cnc(Oc2ccc(C)nc2)cc1C` [Example 487, N-((1R,2S)-2-Acrylamidocyclopentyl)-5-(4-methyl-6-((6-methylpyridin-3-yl)oxy)pyridin-3-yl)-4-oxo-4,5-dihydro-3H-1-thia-3,5,8-triazaacenaphthylene-2-carboxamide] and `C=CC(=O)N[C@H]1CCC[C@H]1NC(=O)c1sc2nccc3c2c1NC(=O)N3c1cnc(Oc2cccnc2C)cc1C` [Example 489, N-((1R,2S)-2-Acrylamidocyclopentyl)-5-(4-methyl-6-((2-methylpyridin-3-yl)oxy)pyridin-3-yl)-4-oxo-4,5-dihydro-3H-1-thia-3,5,8-triazaacenaphthylene-2-carboxamide] are within 0.2 log units of each other in “BTK_I_binding pIC50” value: 6.87 for the first, 7.03 for the second.

Compared with `C=CC(=O)N[C@H]1CCC[C@H]1NC(=O)c1sc2nccc3c2c1NC(=O)N3c1cnc(Oc2ccccn2)cc1C` [Example 488, N-((1R,2S)-2-Acrylamidocyclopentyl)-5-(4-methyl-6-(pyridin-2-yloxy)pyridin-3-yl)-4-oxo-4,5-dihydro-3H-1-thia-3,5,8-triazaacenaphthylene-2-carboxamide], `C=CC(=O)N[C@H]1CCC[C@H]1NC(=O)c1sc2nccc3c2c1NC(=O)N3c1ccc(Oc2cccnc2C)cn1` [Example 493, N-((1R,2S)-2-Acrylamidocyclopentyl)-5-(5-((2-methylpyridin-3-yl)oxy)pyridin-2-yl)-4-oxo-4,5-dihydro-3H-1-thia-3,5,8-triazaacenaphthylene-2-carboxamide] is lower in “BTK_I_binding pIC50” value: 7.62 for the first, 7.32 for the second.

`C=CC(=O)N[C@H]1CCC[C@H]1NC(=O)c1sc2nccc3c2c1NC(=O)N3c1ccc(Oc2cccnc2)cn1` [Example 491, N-((1R,2S)-2-Acrylamidocyclopentyl)-4-oxo-5-(5-(pyridin-3-yloxy)pyridin-2-yl)-4,5-dihydro-3H-1-thia-3,5,8-triazaacenaphthylene-2-carboxamide] and `C=CC(=O)N[C@H]1CCC[C@H]1NC(=O)c1sc2nccc3c2c1NC(=O)N3c1ccc(Oc2cccnc2)nc1C` [Example 494, N-((1R,2S)-2-Acrylamidocyclopentyl)-5-(2-methyl-6-(pyridin-3-yloxy)pyridin-3-yl)-4-oxo-4,5-dihydro-3H-1-thia-3,5,8-triazaacenaphthylene-2-carboxamide] are within 0.2 log units of each other in “BTK_I_binding pIC50” value: 7.43 for the first, 7.37 for the second.

`C=CC(=O)N[C@H]1CCC[C@H]1NC(=O)c1sc2nccc3c2c1NC(=O)N3c1ccc(Oc2cncnc2)nc1C` [Example 492, N-((1R,2S)-2-Acrylamidocyclopentyl)-5-(2-methyl-6-(pyrimidin-5-yloxy)pyridin-3-yl)-4-oxo-4,5-dihydro-3H-1-thia-3,5,8-triazaacenaphthylene-2-carboxamide] and `C=CC(=O)N[C@H]1CCC[C@H]1NC(=O)c1sc2nccc3c2c1NC(=O)N3c1ccc(Oc2ccc(C)nc2)nc1C` [Example 495, N-((1R,2S)-2-Acrylamidocyclopentyl)-5-(2-methyl-6-((6-methylpyridin-3-yl)oxy)pyridin-3-yl)-4-oxo-4,5-dihydro-3H-1-thia-3,5,8-triazaacenaphthylene-2-carboxamide] are within 0.2 log units of each other in “BTK_I_binding pIC50” value: 6.66 for the first, 6.63 for the second.

With `C=CC(=O)N[C@H]1CCC[C@H]1NC(=O)c1sc2nccc3c2c1NC(=O)N3c1ccc(Oc2cncnc2)cc1` [Example 508, N-((1R,2S)-2-acrylamidocyclopentyl)-4-oxo-5-(4-(pyrimidin-5-yloxy)phenyl)-4,5-dihydro-3H-1-thia-3,5,8-triazaacenaphthylene-2-carboxamide] the “BTK_I_binding pIC50” value was 7.48.

Reference: patent US10934310B2, “Inhibitors of Bruton's tyrosine kinase and method of their use” (JANSSEN PHARMACEUTICA NV, priority 2015, dated 2021)
